Experimental findings from US11325889B2, “Substituted 3-((3-aminophenyl)amino)piperidine-2,6-dione compounds, compositions thereof, and methods of treatment therewith” (Celgene Corporation, priority 2018, dated 2022) are described below.

Molecules are shown by their SMILES. Like-named read-outs stand apart in the source and are kept apart here. Some results are limits rather than exact numbers.

The experiment has as its target T1, AR protein in VCaP cells (Homo sapiens, UniProt P10275).
T1 construct: endogenous in cells; host or cells: VCaP cells
T1 sequence (P10275 1-920): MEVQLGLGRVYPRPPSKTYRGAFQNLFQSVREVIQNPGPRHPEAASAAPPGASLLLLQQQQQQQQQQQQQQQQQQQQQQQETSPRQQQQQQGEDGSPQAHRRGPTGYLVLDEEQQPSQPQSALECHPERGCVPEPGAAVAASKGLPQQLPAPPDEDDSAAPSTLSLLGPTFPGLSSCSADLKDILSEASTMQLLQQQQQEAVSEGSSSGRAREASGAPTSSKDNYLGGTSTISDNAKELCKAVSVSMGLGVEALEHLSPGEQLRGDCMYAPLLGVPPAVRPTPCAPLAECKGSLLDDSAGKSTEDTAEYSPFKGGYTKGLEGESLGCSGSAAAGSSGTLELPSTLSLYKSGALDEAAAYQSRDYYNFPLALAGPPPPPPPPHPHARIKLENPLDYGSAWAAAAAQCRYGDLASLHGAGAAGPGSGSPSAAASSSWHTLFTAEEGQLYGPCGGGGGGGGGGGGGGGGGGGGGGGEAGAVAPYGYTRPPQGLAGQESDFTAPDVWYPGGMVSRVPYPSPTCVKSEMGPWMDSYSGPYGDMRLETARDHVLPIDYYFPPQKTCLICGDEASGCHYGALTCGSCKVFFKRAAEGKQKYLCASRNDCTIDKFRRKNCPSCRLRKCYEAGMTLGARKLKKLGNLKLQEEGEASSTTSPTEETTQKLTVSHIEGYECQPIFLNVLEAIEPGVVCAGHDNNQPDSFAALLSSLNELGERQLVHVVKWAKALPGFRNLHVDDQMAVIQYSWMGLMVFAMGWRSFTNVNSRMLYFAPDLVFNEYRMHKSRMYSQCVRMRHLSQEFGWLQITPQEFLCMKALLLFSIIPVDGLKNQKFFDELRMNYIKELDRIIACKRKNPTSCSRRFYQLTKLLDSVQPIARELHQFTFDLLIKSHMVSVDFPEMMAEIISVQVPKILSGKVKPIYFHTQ
As to the kind of experiment: VCAP AR Degradation Assay (AR ELISA, 24 h). The class given is cell-based. The settings on record: for Y (lowest measured AR level normalized to DMSO control): AR degradation efficiency; for DC50: concentration of compound when AR level = 50% of DMSO control. As for the experimental part: VCAP AR Degradation Assay.
Test compounds were pre-dispensed into a Corning CellBind 96-well clear bottom plate (Cat #3300) using an acoustic dispenser to make a 10-point concentration series at 1:3 dilution for each compound. The final top concentration of each compound was […]. DMSO at a final concentration of 0.1% was used as a control. VCaP cells cultured in DMEM with 8% fetal bovine serum (FBS) were seeded at 50K cells per well in a 200 μL volume into the compound plate and incubated at 37° C. in a CO2 incubator for 24 h. The medium was carefully removed from the cells and the plate was placed on ice. One hundred […] of ice-cold 1× cell lysis buffer from Cell Signaling Technologies (Cat #9803) was added to each well of the cells and the plate was incubated at 4° C. on a shaker for 1 h. Fifteen […] of cell lysate was used for AR ELISA detection using a PathScan Total Sandwich AR ELISA kit (Cell Signaling Technology, Cat #12580). AR levels in compound-treated wells were normalized to that of DMSO control and expressed as percent of control (PoC) (y). A Four Parameter Logistic Model (Sigmoidal Dose-Response Model) was used to determine the compound's DC50, and EC50, using the following equation: y=(A+((B−A)/(1+((C/x)^D)))) • A=YMin (lowest AR level normalized to DMSO control in response to compound • treatment, as determined by curve fit) • B=YMax (maximum AR level as determined by curve fit) • C=EC50 • D=Hill Slope • x=compound concentration • EC50=the concentration of compound when y=(YMax−YMin)/2 • DC50=the concentration of the compound when y=50% of DMSO control (50% AR degradation) • y=AR protein level normalized to DMSO control
The lowest measured AR level normalized to DMSO control in response to compound treatment, termed Y value, was used to characterize the compound-mediated AR degradation efficiency.

With `CCc1cc(N2C(=S)N(c3cnc(C#N)c(C(F)(F)F)c3)C(=O)C2(C)C)ccc1OCCC1CCN(CC(=O)Nc2cc(F)cc(NC3CCC(=O)NC3=O)c2)CC1` (stereo not drawn) [Cmpd 16, 2-(4-(2-(4-(3-(6-cyano-5-(trifluoromethyl)pyridin-3-yl)-5,5-dimethyl-4-oxo-2-thioxoimidazolidin-1-yl)-2-ethylphenoxy)ethyl)piperidin-1-yl)-N-(3-(2,6-dioxopiperidin-3-ylamino)-5-fluorophenyl)acetamide], the “Y (lowest measured AR level normalized to DMSO control)” value is recorded as “* (0<Y<=25%)”. For the same compound, for the setting “read-out: DC50”, the DC50 (usually the concentration at which degradation of the target reaches its halfway point) is < 100 nM.

On to `CCc1cc(N2C(=S)N(c3cnc(C#N)c(C(F)(F)F)c3)C(=O)C23CCC3)ccc1OCCC1CCN([C@H](C)C(=O)Nc2cccc(NC3CCC(=O)NC3=O)c2)CC1` (stereo partly drawn) [Cmpd 84, (2R)-2-(4-(2-(4-(7-(6-cyano-5-(trifluoromethyl)pyridin-3-yl)-8-oxo-6-thioxo-5,7-diazaspiro[3.4]octan-5-yl)-2-ethylphenoxy)ethyl)piperidin-1-yl)-N-(3-(2,6-dioxopiperidin-3-ylamino)phenyl)propanamide], for which the “Y (lowest measured AR level normalized to DMSO control)” value is reported as “* (0<Y<=25%)”. Further, the DC50 (read-out: DC50) is < 100 nM.

Regarding `CCc1cc(N2C(=S)N(c3cnc(C#N)c(C(F)(F)F)c3)C(=O)C2(C)C)ccc1OC1C[C@H]2CC[C@@H](C1)N2CC(=O)Nc1cccc(NC2CCC(=O)NC2=O)c1` (stereo partly drawn) [Cmpd 87, 2-((1R,3s,5S)-3-(4-(3-(6-cyano-5-(trifluoromethyl)pyridin-3-yl)-5,5-dimethyl-4-oxo-2-thioxoimidazolidin-1-yl)-2-ethylphenoxy)-8-azabicyclo[3.2.1]octan-8-yl)-N-(3-(2,6-dioxopiperidin-3-ylamino)phenyl)acetamide], the “Y (lowest measured AR level normalized to DMSO control)” value is “*** (35%<Y<50%)”. For the setting “read-out: DC50”, the DC50 was in the range of 500 to 1000 nM.

Consider `CCc1cc(N2C(=S)N(c3cnc(C#N)c(C(F)(F)F)c3)C(=O)C2(C)C)ccc1OCC[C@H]1C[C@H]2CC[C@@H](C1)N2CC(=O)Nc1cc(Cl)cc(NC2CCC(=O)NC2=O)c1` (stereo partly drawn) [Cmpd 63, N-(3-chloro-5-(2,6-dioxopiperidin-3-ylamino)phenyl)-2-((1R,3r,5S)-3-(2-(4-(3-(6-cyano-5-(trifluoromethyl)pyridin-3-yl)-5,5-dimethyl-4-oxo-2-thioxoimidazolidin-1-yl)-2-ethylphenoxy)ethyl)-8-azabicyclo[3.2.1]octan-8-yl)acetamide], for which the “Y (lowest measured AR level normalized to DMSO control)” value is given as “** (25%<Y<=35%)” and the DC50 is < 100 nM.

With `CCc1cc(N2C(=S)N(c3cnc(C#N)c(C(F)(F)F)c3)C(=O)C2(C)C)ccc1OCCC1CCN(CC(=O)Nc2cccc(NC3CCC(=O)NC3=O)c2)CC1` (stereo not drawn) [Cmpd 12, 2-(4-(2-(4-(3-(6-cyano-5-(trifluoromethyl)pyridin-3-yl)-5,5-dimethyl-4-oxo-2-thioxoimidazolidin-1-yl)-2-ethylphenoxy)ethyl)piperidin-1-yl)-N-(3-(2,6-dioxopiperidin-3-ylamino)phenyl)acetamide], the “Y (lowest measured AR level normalized to DMSO control)” value was “* (0<Y<=25%)”. Moreover, the DC50 (read-out: DC50) was < 100 nM.

Turning to `CC(F)(F)c1cc(N2C(=S)N(c3cnc(C#N)c(C(F)(F)F)c3)C(=O)C2(C)C)ccc1OCCC1CCN(CC(=O)Nc2cc(F)cc(NC3CCC(=O)NC3=O)c2)CC1` (stereo not drawn) [Cmpd 22, 2-(4-(2-(4-(3-(6-cyano-5-(trifluoromethyl)pyridin-3-yl)-5,5-dimethyl-4-oxo-2-thioxoimidazolidin-1-yl)-2-(1,1-difluoroethyl)phenoxy)ethyl)piperidin-1-yl)-N-(3-(2,6-dioxopiperidin-3-ylamino)-5-fluorophenyl)acetamide], the “Y (lowest measured AR level normalized to DMSO control)” value was “* (0<Y<=25%)”. In addition, the DC50 (read-out: DC50) was < 100 nM.

`CCc1cc(N2C(=S)N(c3cnc(C#N)c(C(F)(F)F)c3)C(=O)C2(C)C)ccc1OCCC1CCN(CC(=O)Nc2cc(NC3CCC(=O)NC3=O)ccc2Cl)CC1` (stereo not drawn) [Cmpd 14, N-(2-chloro-5-(2,6-dioxopiperidin-3-ylamino)phenyl)-2-(4-(2-(4-(3-(6-cyano-5-(trifluoromethyl)pyridin-3-yl)-5,5-dimethyl-4-oxo-2-thioxoimidazolidin-1-yl)-2-ethylphenoxy)ethyl)piperidin-1-yl)acetamide]: the “Y (lowest measured AR level normalized to DMSO control)” value was “* (0<Y<=25%)”. In addition, the DC50 (read-out: DC50) was in the range of 100 to 500 nM.

Regarding `CCc1cc(N2C(=S)N(c3ccc(C#N)c(C(F)(F)F)c3)C(=O)C2(C)C)ccc1OCC[C@H]1CCN(CC(=O)Nc2cc(NC3CCC(=O)NC3=O)ccc2F)[C@H](C)C1` (stereo partly drawn) [Cmpd 82, 2-((2R,4S)-4-(2-(4-(3-(4-cyano-3-(trifluoromethyl)phenyl)-5,5-dimethyl-4-oxo-2-thioxoimidazolidin-1-yl)-2-ethylphenoxy)ethyl)-2-methylpiperidin-1-yl)-N-(5-(2,6-dioxopiperidin-3-ylamino)-2-fluorophenyl)acetamide], the “Y (lowest measured AR level normalized to DMSO control)” value is listed as “** (25%<Y<=35%)”. The DC50 (read-out: DC50) lay within 100 to 500 nM.

As for `CCc1cc(N2C(=S)N(c3ccc(C#N)c(C(F)(F)F)c3)C(=O)C23CCC3)ccc1OCCC1CCN([C@@H](C)C(=O)Nc2cccc(NC3CCC(=O)NC3=O)c2)CC1` (stereo partly drawn) [Cmpd 59, (2S)-2-(4-(2-(4-(7-(4-cyano-3-(trifluoromethyl)phenyl)-8-oxo-6-thioxo-5,7-diazaspiro[3.4]octan-5-yl)-2-ethylphenoxy)ethyl)piperidin-1-yl)-N-(3-(2,6-dioxopiperidin-3-ylamino)phenyl)propanamide], the “Y (lowest measured AR level normalized to DMSO control)” value is on record as “** (25%<Y<=35%)”. In addition, the 50% degradation concentration (DC50) (read-out: DC50) is 100 to 500 nM.

As for `CCc1cc(N2C(=S)N(c3cnc(C#N)c(C(F)(F)F)c3)C(=O)C2(C)C)ccc1OCC[C@@H]1CCN(CC(=O)Nc2cc(NC3CCC(=O)NC3=O)ccc2F)[C@H](C)C1` (stereo partly drawn) [Cmpd 79, 2-((2R,4R)-4-(2-(4-(3-(6-cyano-5-(trifluoromethyl)pyridin-3-yl)-5,5-dimethyl-4-oxo-2-thioxoimidazolidin-1-yl)-2-ethylphenoxy)ethyl)-2-methylpiperidin-1-yl)-N-(5-(2,6-dioxopiperidin-3-ylamino)-2-fluorophenyl)acetamide], the “Y (lowest measured AR level normalized to DMSO control)” value is “** (25%<Y<=35%)”. Under “read-out: DC50”, the DC50 fell in the range of 100 to 500 nM.

With `C[C@@H](C(=O)Nc1cccc(NC2CCC(=O)NC2=O)c1)N1CCC(CCOc2ccc(N3C(=S)N(c4cnc(C#N)c(C(F)(F)F)c4)C(=O)C3(C)C)cc2CCF)CC1` (stereo partly drawn) [Cmpd 73, (2S)-2-(4-(2-(4-(3-(6-cyano-5-(trifluoromethyl)pyridin-3-yl)-5,5-dimethyl-4-oxo-2-thioxoimidazolidin-1-yl)-2-(2-fluoroethyl)phenoxy)ethyl)piperidin-1-yl)-N-(3-(2,6-dioxopiperidin-3-ylamino)phenyl)propanamide], the “Y (lowest measured AR level normalized to DMSO control)” value is on record as “* (0<Y<=25%)”. The 50% degradation concentration (DC50) (read-out: DC50) was < 100 nM.

As to `CC1(C)C(=O)N(c2ccc(C#N)c(C(F)(F)F)c2)C(=S)N1c1ccc(OCCC2CCN(CC(=O)Nc3cc(Cl)cc(NC4CCC(=O)NC4=O)c3)CC2)c(F)c1` (stereo not drawn) [Cmpd 10, N-(3-chloro-5-(2,6-dioxopiperidin-3-ylamino)phenyl)-2-(4-(2-(4-(3-(4-cyano-3-(trifluoromethyl)phenyl)-5,5-dimethyl-4-oxo-2-thioxoimidazolidin-1-yl)-2-fluorophenoxy)ethyl)piperidin-1-yl)acetamide], the “Y (lowest measured AR level normalized to DMSO control)” value was “** (25%<Y<=35%)”. Where the note is “read-out: DC50”, the DC50 fell in the range of 100 to 500 nM.
